Earlier results as cited in patent US20250099385A1, “Extended Release Boswellic Acid and Manufacturing Thereof” (Lonza Greenwood LLC, priority 2022, published 2025).
Entries after “also recorded” stand apart in the source; their conditions may differ.

Experiments:
[1] = molecular target: T1, 5-lipoxygenase (Homo sapiens, UniProt P09917)
T1 sequence (P09917 1-674): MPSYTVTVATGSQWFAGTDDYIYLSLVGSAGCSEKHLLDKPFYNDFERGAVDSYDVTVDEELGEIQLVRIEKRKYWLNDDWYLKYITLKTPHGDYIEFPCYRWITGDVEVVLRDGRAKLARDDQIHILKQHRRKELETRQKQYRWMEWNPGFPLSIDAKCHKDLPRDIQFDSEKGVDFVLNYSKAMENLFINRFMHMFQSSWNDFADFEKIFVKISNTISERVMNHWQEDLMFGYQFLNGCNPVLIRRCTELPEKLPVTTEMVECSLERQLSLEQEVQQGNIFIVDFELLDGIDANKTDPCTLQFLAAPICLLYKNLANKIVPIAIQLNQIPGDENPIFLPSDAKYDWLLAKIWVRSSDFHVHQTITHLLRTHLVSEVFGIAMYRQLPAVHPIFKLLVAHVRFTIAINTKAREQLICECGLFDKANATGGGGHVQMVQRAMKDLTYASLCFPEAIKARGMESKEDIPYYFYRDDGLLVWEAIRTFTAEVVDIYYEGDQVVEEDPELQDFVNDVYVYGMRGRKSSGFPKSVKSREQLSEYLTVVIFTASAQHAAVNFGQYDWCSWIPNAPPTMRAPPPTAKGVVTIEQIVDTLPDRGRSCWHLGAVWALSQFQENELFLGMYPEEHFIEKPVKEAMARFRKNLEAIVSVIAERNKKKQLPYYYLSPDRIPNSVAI

[2] = not given; remark: listed apart in the source

Substance: 3-O-acetyl-11-keto-.beta.-boswellic acid [AKBA]
- time at which AKBA levels in the blood peak (after oral consumption): ~3 h
- AKBA levels in the blood beyond 10 hours (beyond 10 hours from oral consumption): nearly zero concentration; also recorded: almost zero concentrations
- bioavailability (in vivo): poorly bioavailable
- 5-lipoxygenase inhibition, rank among the boswellic acids [1]: most potent inhibitor
- water solubility [2]: highly water-insoluble
